Organism: Cavia porcellus
Assay: Tested for analgesic activity in the guinea pig ileum preparation relative to normorphine (1)
Type: functional

Row | SMILES | Relative activity
1 | CN1CCC23c4c5ccc(O)c4O[C@H]2[C@@H](O)C=C[C@@]3(O)C1C5 (stereo partly specified) | 0.8
2 | CN1CCC23c4c5ccc(O)c4O[C@H]2[C@@H](O)C=C[C@@]3(S)C1C5 (stereo partly specified) | 0.4
3 | CC(=O)N[C@@]12C=C[C@H](OC(C)=O)[C@@H]3Oc4c(O)ccc5c4C31CCN(C)C2C5 (stereo partly specified) | 0.6
4 | CN1CCC23c4c5ccc(O)c4O[C@H]2C(=O)C=C[C@@]3(Br)C1C5 (stereo partly specified) | 0.4
5 | CN1CCC23c4c5ccc(O)c4O[C@H]2C(=O)C=C[C@@]3(Cl)C1C5 (stereo partly specified) | 0.5
6 | CN1CCC23c4c5ccc(O)c4O[C@H]2C(=O)C=C[C@@]3([N+](=O)[O-])C1C5 (stereo partly specified) | 0.006
